“Also recorded” adds a separate entry of the source.
How the values were obtained:
Ts65Dn mice [1] = settings: restoration of norepinephrine level; cited from earlier work
Ts65Dn mice [2] = settings: restoration of norepinephrine level; cited from earlier work; remark: listed apart in the source
male Ts65Dn mice [3] = assay: T-maze spontaneous alternation; type: in vivo; settings: betaxolol 1 mg/kg s.c. plus xamoterol 3 mg/kg s.c.
Source text: The T-maze had 3 equal arms (30 cm length, 10 cm width, and 20 cm height). The start arm and 2 goal arms had guillotine gates. This test was based on the rodents' preference to experience a new arm of the T-maze instead of a familiar one ([…], 1998). In each trial, the mouse was placed in the start arm. The gate was then opened and the mouse was able to freely explore the arms. As soon as the mouse entered one goal arm, the sliding gate of the other goal arm closed. The mouse eventually returned to the start arm and the next trial was started. In the next trial, the mouse may recognize the previously chosen goal arm and choose to explore a new arm rather than revisit the previously visited arm. This trial was repeated 11 times per day for 3 consecutive days, for a total of 33 trials. The maze was cleaned with 50% ethanol between trials to eliminate odor. Percent of alternation (number of turns in each goal arm) was used for analysis. This protocol has been described before by Belichenko et al. (2009) and is modified from a Deacon and Rawlins (2006) protocol (Deacon and Rawlins, 2006; Belichenko et al., 2009). […] In this part of the study, activity chamber and three cognitive tests, including T-maze spontaneous alternation, contextual fear conditioning (CFC), and novel object recognition were performed. In T-maze spontaneous alternation and contextual fear conditioning, both Ts65Dn and 2N male mice were divided into three treatment groups including normal saline (Vehicle), xamoterol, and betaxolol plus xamoterol groups. In the novel object recognition test, both Ts65Dn and 2N male mice were divided into two treatment groups, normal saline and xamoterol. The T-maze was performed exactly as previously described. […] On the first day (training day), animals were placed in the fear conditioning chamber, and after a 3-minute pre-shock period, they were exposed to 5 shocks (2 s, 0.5 mA,) with inter-trial intervals of 80 seconds and no tone. On the second day, the animals first received xamoterol, xamoterol plus betaxolol, or saline injection, and one hour later, they were placed in the same chamber for 5 minutes. Similar to the previous description of fear conditioning, freezing was defined as the complete lack of motion for a minimum of o.75 second. The Novel Object Recognition task is conducted in an open field arena (40 cm×40 cm). Mice were habituated in the testing room for 1 hour followed by 5 minutes habituation inside the arena without any objects. On 4th day animals were introduced 3 times to arena with 3 identical subjects for 10 minutes with 3 minutes inter trial intervals. On 5th day (24 hours after trainings) one of the objects replaced by a novel one and the time sniffing of each object were used for analysis. For testing the role of β1 adrenergic system, xamoterol and betaxolol (Tocris Bioscience, Ellisville, Mo.) were injected subcutaneously using 10 ml/kg normal saline as vehicle. Xamoterol, (3 mg/kg) was given one hour before testing and betaxolol (1 mg/kg) was given 30 minutes before testing.

male Ts65Dn mice [4] = assay: Contextual fear conditioning; type: in vivo; settings: betaxolol 1 mg/kg s.c. plus xamoterol 3 mg/kg s.c.
Procedure: Contextual and Cued fear conditioning was conducted for evaluation of fear-dependent learning and retrieval in the study. The test was performed using chambers from Coulbourn Instruments (Whitehall, Pa.). On the first day, the animals were placed in a chamber (Context A) for 3 min for baseline recording, followed by 5 tone-shock pairings. The shock (0.5 mA, 2 sec) was delivered following the tone (70 dB, 2 kHz, 20 sec) in each conditional/unconditional stimulus pairing. On the second day a novel chamber (Context B; new room, new olfactory environment, texture of floor, blue plastic inserts for walls, extra source of blue light, and visual cues) was used for cued testing. Three tones without shocks were presented to animals during a 3 min testing period following a 3 min pre-tone period. On the last day of the experiment, the mice were placed in Context A for 5 min without any conditional and unconditional stimulus {modified from the method described by (Saxe et al., 2006)}. Freezing was defined as the complete lack of motion for a minimum of 0.75 second as measured by FreezeFrame software (Actimetrics, Evanston, Ill.). The percent of freezing in each period was reported. For the startle response control test, an acoustic startle reflex apparatus (Med Associates Inc., St. Albans, Vt.) was used. The subjects were acclimated to the animal holder in the startle box for a total of 15 min over 3 consecutive-days prior to the experiment. The animals were exposed to 25 different trials with 10-20 second randomly variable inter-trial intervals. Five different intensities of startle pulses, 0, 90, 100, 110, and 120 dB, were randomly used, and each animal was randomly exposed 5 times to each intensity of the startle pulse. The duration of each startle pulse was 40 ms and the peak amplitude of the startle response in each trial was recorded for analysis. The holding cage on the apparatus was cleaned with 10% alcohol between each animal. […] In this part of the study, activity chamber and three cognitive tests, including T-maze spontaneous alternation, contextual fear conditioning (CFC), and novel object recognition were performed. In T-maze spontaneous alternation and contextual fear conditioning, both Ts65Dn and 2N male mice were divided into three treatment groups including normal saline (Vehicle), xamoterol, and betaxolol plus xamoterol groups. In the novel object recognition test, both Ts65Dn and 2N male mice were divided into two treatment groups, normal saline and xamoterol. The T-maze was performed exactly as previously described. […] On the first day (training day), animals were placed in the fear conditioning chamber, and after a 3-minute pre-shock period, they were exposed to 5 shocks (2 s, 0.5 mA,) with inter-trial intervals of 80 seconds and no tone. On the second day, the animals first received xamoterol, xamoterol plus betaxolol, or saline injection, and one hour later, they were placed in the same chamber for 5 minutes. Similar to the previous description of fear conditioning, freezing was defined as the complete lack of motion for a minimum of o.75 second. The Novel Object Recognition task is conducted in an open field arena (40 cm×40 cm). Mice were habituated in the testing room for 1 hour followed by 5 minutes habituation inside the arena without any objects. On 4th day animals were introduced 3 times to arena with 3 identical subjects for 10 minutes with 3 minutes inter trial intervals. On 5th day (24 hours after trainings) one of the objects replaced by a novel one and the time sniffing of each object were used for analysis. For testing the role of β1 adrenergic system, xamoterol and betaxolol (Tocris Bioscience, Ellisville, Mo.) were injected subcutaneously using 10 ml/kg normal saline as vehicle. Xamoterol, (3 mg/kg) was given one hour before testing and betaxolol (1 mg/kg) was given 30 minutes before testing.

C57Bl/6J mice = assay: Contextual fear conditioning memory retrieval (FIG. 10A, B); type: in vivo; settings: betaxolol 1 mg/kg, atenolol 3 mg/kg s.c.
Procedure: In all experiments xamoterol 3 mg/kg, atenolol 3 mg/kg, and betaxolol 1 mg/kg were injected subcutaneously. […] Results are shown as mean+SEM (ns=not significant, *=p<0.05, and **=p<0.01).

SMILES | effect on hippocampal-mediated contextual deficit in fear conditioning (Ts65Dn mice [1]) | effect on nesting behavior (Ts65Dn mice [2]) | effect of betaxolol on xamoterol's rescue of spontaneous alternation (male Ts65Dn mice [3]) | effect of betaxolol on xamoterol's rescue of contextual fear conditioning (male Ts65Dn mice [4]) | effect on memory retrieval of contextual fear conditioning (C57Bl/6J mice)
N[C@H](C(=O)O)[C@H](O)c1ccc(O)c(O)c1 [L-DOPS, L-threo-3,4-dihydroxyphenylserine] | restored | restored | – | – | –
CC(C)NCC(O)COc1ccc(CCOCC2CC2)cc1 (stereo not drawn) [betaxolol] | – | – | completely reversed; also recorded: prevented or blocked; also recorded: blocked; also recorded: betaxolol prevents this effect | completely reversed; also recorded: prevents or blocks; also recorded: completely blocked; also recorded: betaxolol prevents this effect | impaired
CC(C)NCC(O)COc1ccc(CC(N)=O)cc1 (stereo not drawn) [atenolol] | – | – | – | – | did not have such an effect
